{
  "source": "patent US20120064044A1",
  "about": "“METHODS OF TREATING EDEMA RELATED TO ISCHEMIA-REPERFUSION” (priority 2009, published 2012)",
  "key": {"NF-κB activation [1]": {"system": "NF-κB activation", "experiment": "NF-κB reporter assay (fluc/β-gal) in HMVECs stimulated with LPS or TNF", "format": "cell-based, human", "details": "FIG. 5B", "method": "FIG. 5B is a bar graph showing the in vitro inhibition of NF-κB activation (based on firefly luciferase (fluc)/β-galactosidase (β-gal) activity) effected by 0.1, 1, 10, and 100 μg concentrations (i.e., Inhib 0.1, Inhib 1, Inhib 10, Inhib 100, respectively) of CRX-526. Fluc/β-gal was measured following stimulation of CRX-526-treated human pulmonary microvascular endothelial cells (HMVECs) with phosphate buffered saline (PBS) only (open bars), 10 ng/mL lipopolysaccharide (LPS) (spotted bars), 5 ng/mL LPS (striped bars), or 0.25 ng/mL tumor necrosis factor (TNF, darkly shaded bars). HMVECs that had not been treated with CRX-526 were used as a control. n=4/group, *p<0.05 compared to other values at same time point by ANOVA.\n(§1) Recombinant, first generation E1, E3-deleted adenovirus serotype 5 vectors were prepared (see Sanlioglu et al., J. Biol. Chem., 276, 30188-30198 (2001)) and HMVECs and AMs were transfected as previously described for epithelial cells. See Wu et al., Respir. Res., 6, 26 (2005)."}, "[2]": {"system": "NF-κB activation mediated through stimulation by Toll-like receptor 2 (TLR2) ligands", "experiment": "NF-κB reporter assay (fluc/β-gal) in HMVECs stimulated with TLR2 ligands", "format": "cell-based, human", "details": "transfected HMVECs pretreated 1 hour; Pam(3)Cys 25 μg/mL or LTA 1 μg/mL for 8 hours; FIG. 8", "description": "FIG. 8 is a bar graph showing the effects of CRX-526 on NF-κB activation mediated through stimulation by Toll-like receptor 2 (TLR2) ligands. Human pulmonary microvascular endothelial cells (HMVECs) were transfected with recombinant first-generation E1, E3-deleted Ad.NF-κB-luciferase and consituitive β-galactosidase vectors so that when NF-κB is activated, the ratio of firefly luciferase (fluc)/β-galactosidase (β-gal) increases. Forty eight hours after transfection, the HMVECs were pretreated for 1 hour with various concentrations of CRX-526 (as shown on the x-axis) and exposed to TLR2 ligands Pam(3)Cys (25 μg/mL, darkly shaded bars) or lipoteichoic acid (LTA; 1 μg/mL, open bars) for 8 hours. Luciferase activity is normalized to β-galactosidase to control for infection efficiency.\nas §1"}, "OuJ mice": {"system": "OuJ mice", "experiment": "Murine lung ischemia-reperfusion injury, edema by wet to dry weight ratio (W/D), OuJ mice", "format": "in vivo, mouse", "set-up": "dose or concentration left out as unconfirmed", "details": "intravenously over 30 minutes (200 μL of saline) starting 60 minutes before left hilar clamping, FIG. 5A", "method": "(§2) Mice were anesthetized with ketamine (0.1 mg/gm body weight) and xylazine (0.01 mg/gm) interperitoneally, followed by one-third of the initial dose hourly. Tracheotomy allowed mechanical ventilation (with a tidal volume of 0.4 mL, respiratory rate 120/min, I/E 0.4, PEEP 3 cm H2O, FiO2, 1.0) using a Columbus Instruments Ventilator CIV-101 (Columbus Instruments, Columbus, Ohio, United States of America). The right jugular vein was cannulated for infusion of albumin 2.5% in 0.9% saline, 450 μL/hour by syringe pump (Medfusion 2010i; Medex, Carlsbad, California, United States of America) to maintain hydration. Rectal temperature was monitored and maintained with a heating pad. The left pulmonary hilum was occluded for 1 hour with a microvascular clamp through a left thoracotomy. Reperfusion began with removal of the clamp. Animals were sacrificed at intervals ranging from 15 minutes to 3 hours by cardiectomy, and both lungs were excised. The apical portion of each lung was excised and immediately weighed, then desiccated in a 60° C. oven for 48 hours and re-weighed to determine wet to dry weight ratio (W/D). Remaining lung tissue was flash frozen in liquid nitrogen and stored at −80° C. Lungs excised immediately after sacrifice served as controls."}, "C57BL/6J mice": {"system": "C57BL/6J mice", "experiment": "Murine lung ischemia-reperfusion injury, edema by wet to dry weight ratio (W/D), C57BL/6J mice", "format": "in vivo, mouse", "details": "BL6 mice; 10 μg over 30 minutes starting 60 min prior to left hilar clamping for 1 hour; FIGS. 7A and 7B", "method": "as §2\nA further study was performed to compare the effects of pre-treatment with a TLR4 inhibitor. […]"}, "NF-κB activation [3]": {"system": "NF-κB activation", "experiment": "NF-κB reporter assay (fluc/β-gal) in alveolar macrophages", "format": "cell-based, mouse", "details": "1 μg/mL LPS; native OuJ AMs and AMs from chimeric strain P-M+; FIG. 4A", "method": "FIG. 4A is a bar graph of NF-κB activation (as measured by firefly luciferase (fluc)/β-galactosidase (β-gal) activity) in alveolar macrophages (AMs) from chimeric mice twelve weeks following bone marrow transplant. The AMs were retrieved by bronchoalveolar lavage (BAL) and infected with Ad.NFκBLuc and Ad.CMV-LacZ, then incubated with either phosphate buffered saline (PBS; open bars) or 1 μg/mL lipopolysaccharide (LPS, darkly shaded bars). The observed firefly luciferase/β-galactosidase activity indicated complete replacement of recipient marrow from either chimeric HeJ strain (P+M−) or chimeric OuJ strain (P−M+). P=parenchymal cells, M=marrow-derived cells, +=intact TLR4 (OuJ), −=non-functional TLR4 (HeJ). AMs retrieved from non-irradiated HeJ and OuJ mice served as controls. n=4 experiments/group, p<0.0001.\nAMs from HeJ and OuJ mice were harvested by BAL 120 days after BMT. The trachea was cannulated with a tailored 18 gauge catheter (Becton Dickinson, Sandy, Utah, United States of America). BAL was performed by slow tracheal delivery of 4 aliquots (35 μL×body weight in grams) of pre-warmed, sterile, endotoxin-, calcium-, and magnesium-free PBS with 0.2 mM EGTA. Lavage fluid was withdrawn by gentle suction, pooled for each mouse, and centrifuged at 250 g for 5 minutes. […]"}},
  "data": [
    {"compound": "CCCCCCCCCCC[C@H](CC(=O)N[C@H]1[C@H](OC[C@H](NC(=O)C[C@@H](CCCCCCCCCCC)OC(=O)CCCCC)C(=O)O)O[C@H](CO)[C@@H](OP(=O)(O)O)[C@@H]1OC(=O)C[C@@H](CCCCCCCCCCC)OC(=O)CCCCC)OC(=O)CCCCC", "note": "[CRX-526]", "values": [
      {"measurement": "TNF stimulation of NF-κB activation", "setting": "NF-κB activation [1]; HMVECs, 0.25 ng/mL TNF", "result": "no impact"},
      {"measurement": "NF-κB activation in HMVECs exposed to LPS", "setting": "NF-κB activation [1]; LPS 10 or 5 ng/mL, CRX-526 0.1, 1, 10, 100 μg", "result": "prevented NF-κB activation"},
      {"measurement": "NF-κB activation stimulated by TLR2 ligands", "setting": "[2]", "result": "reduced NF-κB activation"},
      {"measurement": "edema (W/D) following 1 hour of ischemia-reperfusion", "setting": "OuJ mice", "result": "prevented edema"},
      {"measurement": "edema (W/D) for up to 180 min of reperfusion", "setting": "C57BL/6J mice", "result": "little if any edema"}
    ]},
    {"compound": "lipopolysaccharide [LPS]", "values": [
      {"measurement": "increase in luciferase activity", "setting": "NF-κB activation [3]", "result": "approximately 60 fold"}
    ]}
  ]
}
